Assay results taken from patent US12516056B2, “Compounds for inhibition of janus kinase 1” (MANKIND PHARMA LTD., priority 2019, dated 2026).

Legend:
Recombinant JAK1 = target: T1, Recombinant JAK1 (Homo sapiens, UniProt P23458); assay: JAK biochemical assay (LANCE Ultra TR-FRET), JAK1; conditions: recombinant JAK1, TR-FRET; read-out: Biochemical Assay (μM) JAK1
T1 construct: purchased Carna Biosciences
Procedure, shortened: (§1)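 TR-FRET read-out of ULight substrate phosphorylation by recombinant kinase gives % inhibition relative to vehicle. The assay buffer is HEPES pH 7.5 with EGTA, MgCl2, DTT and Tween-20.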

Recombinant JAK2 = target: T2, Recombinant JAK2 (Homo sapiens, UniProt O60674); assay: JAK biochemical assay (LANCE Ultra TR-FRET), JAK2; conditions: recombinant JAK2, TR-FRET; read-out: Biochemical Assay (μM) JAK2
T2 construct: purchased Carna Biosciences
T2 sequence (O60674 whole entry): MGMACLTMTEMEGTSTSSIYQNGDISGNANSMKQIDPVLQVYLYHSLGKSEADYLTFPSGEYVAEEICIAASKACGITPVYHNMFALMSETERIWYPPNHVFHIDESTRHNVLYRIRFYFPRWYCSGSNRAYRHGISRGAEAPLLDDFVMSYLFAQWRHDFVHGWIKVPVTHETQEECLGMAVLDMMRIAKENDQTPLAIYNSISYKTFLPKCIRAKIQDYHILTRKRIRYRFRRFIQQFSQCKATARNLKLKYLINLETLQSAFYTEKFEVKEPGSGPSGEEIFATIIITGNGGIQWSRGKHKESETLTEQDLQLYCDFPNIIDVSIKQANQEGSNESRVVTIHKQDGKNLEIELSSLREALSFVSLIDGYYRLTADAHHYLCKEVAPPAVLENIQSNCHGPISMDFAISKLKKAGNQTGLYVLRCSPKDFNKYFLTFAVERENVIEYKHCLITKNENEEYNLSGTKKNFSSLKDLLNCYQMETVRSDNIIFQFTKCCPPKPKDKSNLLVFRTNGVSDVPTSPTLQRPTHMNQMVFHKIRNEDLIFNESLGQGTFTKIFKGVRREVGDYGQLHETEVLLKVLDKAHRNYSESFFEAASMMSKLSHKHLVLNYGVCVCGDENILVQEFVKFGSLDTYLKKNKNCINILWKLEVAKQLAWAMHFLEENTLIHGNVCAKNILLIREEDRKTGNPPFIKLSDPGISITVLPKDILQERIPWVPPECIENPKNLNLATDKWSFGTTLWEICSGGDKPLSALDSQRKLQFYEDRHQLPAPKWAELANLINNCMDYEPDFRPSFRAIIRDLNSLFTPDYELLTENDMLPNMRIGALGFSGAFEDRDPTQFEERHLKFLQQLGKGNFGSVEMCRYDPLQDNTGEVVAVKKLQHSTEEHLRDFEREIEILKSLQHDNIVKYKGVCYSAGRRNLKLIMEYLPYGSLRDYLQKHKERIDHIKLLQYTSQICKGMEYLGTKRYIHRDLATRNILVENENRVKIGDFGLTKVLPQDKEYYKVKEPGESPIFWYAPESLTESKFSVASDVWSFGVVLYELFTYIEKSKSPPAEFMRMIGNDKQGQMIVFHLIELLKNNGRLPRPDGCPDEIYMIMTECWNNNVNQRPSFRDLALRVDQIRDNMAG
Procedure, shortened: as §1

Recombinant JAK3 = target: T3, Recombinant JAK3 (Homo sapiens, UniProt P52333); assay: JAK biochemical assay (LANCE Ultra TR-FRET), JAK3; conditions: recombinant JAK3, TR-FRET; read-out: Biochemical Assay (μM) JAK3
T3 construct: purchased Carna Biosciences
T3 sequence (P52333 1-1124): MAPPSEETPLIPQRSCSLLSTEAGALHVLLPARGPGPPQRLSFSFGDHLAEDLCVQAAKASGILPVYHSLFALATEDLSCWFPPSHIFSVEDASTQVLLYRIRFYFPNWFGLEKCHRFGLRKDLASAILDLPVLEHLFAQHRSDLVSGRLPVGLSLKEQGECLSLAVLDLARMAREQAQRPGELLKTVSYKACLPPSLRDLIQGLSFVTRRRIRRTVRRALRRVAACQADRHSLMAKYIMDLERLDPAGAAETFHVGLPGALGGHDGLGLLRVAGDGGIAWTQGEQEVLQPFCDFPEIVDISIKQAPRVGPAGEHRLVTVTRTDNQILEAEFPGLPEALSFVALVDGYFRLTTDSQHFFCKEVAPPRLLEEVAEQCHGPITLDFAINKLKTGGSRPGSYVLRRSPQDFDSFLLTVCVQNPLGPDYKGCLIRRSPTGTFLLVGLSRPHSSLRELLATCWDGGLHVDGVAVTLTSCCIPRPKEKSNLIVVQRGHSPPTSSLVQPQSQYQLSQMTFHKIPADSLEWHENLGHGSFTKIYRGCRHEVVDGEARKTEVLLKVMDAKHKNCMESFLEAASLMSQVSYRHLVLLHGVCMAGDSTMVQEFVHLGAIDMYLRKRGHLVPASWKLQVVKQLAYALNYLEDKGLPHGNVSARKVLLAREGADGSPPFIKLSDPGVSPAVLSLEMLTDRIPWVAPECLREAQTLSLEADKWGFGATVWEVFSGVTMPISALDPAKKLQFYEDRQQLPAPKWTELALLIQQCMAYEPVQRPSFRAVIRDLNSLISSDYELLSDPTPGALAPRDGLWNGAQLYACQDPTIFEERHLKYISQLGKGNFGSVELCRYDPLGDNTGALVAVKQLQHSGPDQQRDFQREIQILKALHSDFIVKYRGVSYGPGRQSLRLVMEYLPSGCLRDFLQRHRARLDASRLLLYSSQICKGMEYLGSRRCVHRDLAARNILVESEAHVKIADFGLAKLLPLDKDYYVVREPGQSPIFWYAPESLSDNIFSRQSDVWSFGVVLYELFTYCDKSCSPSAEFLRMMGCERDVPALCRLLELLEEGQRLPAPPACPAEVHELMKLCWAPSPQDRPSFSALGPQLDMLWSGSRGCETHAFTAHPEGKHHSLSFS
Procedure, shortened: as §1

Recombinant TYK2 = target: T4, Recombinant TYK2 (Homo sapiens, UniProt P29597); assay: JAK biochemical assay (LANCE Ultra TR-FRET), TYK2; conditions: recombinant TYK2, TR-FRET; read-out: Biochemical Assay (μM) TYK2
T4 construct: purchased Carna Biosciences
T4 sequence (P29597 whole entry): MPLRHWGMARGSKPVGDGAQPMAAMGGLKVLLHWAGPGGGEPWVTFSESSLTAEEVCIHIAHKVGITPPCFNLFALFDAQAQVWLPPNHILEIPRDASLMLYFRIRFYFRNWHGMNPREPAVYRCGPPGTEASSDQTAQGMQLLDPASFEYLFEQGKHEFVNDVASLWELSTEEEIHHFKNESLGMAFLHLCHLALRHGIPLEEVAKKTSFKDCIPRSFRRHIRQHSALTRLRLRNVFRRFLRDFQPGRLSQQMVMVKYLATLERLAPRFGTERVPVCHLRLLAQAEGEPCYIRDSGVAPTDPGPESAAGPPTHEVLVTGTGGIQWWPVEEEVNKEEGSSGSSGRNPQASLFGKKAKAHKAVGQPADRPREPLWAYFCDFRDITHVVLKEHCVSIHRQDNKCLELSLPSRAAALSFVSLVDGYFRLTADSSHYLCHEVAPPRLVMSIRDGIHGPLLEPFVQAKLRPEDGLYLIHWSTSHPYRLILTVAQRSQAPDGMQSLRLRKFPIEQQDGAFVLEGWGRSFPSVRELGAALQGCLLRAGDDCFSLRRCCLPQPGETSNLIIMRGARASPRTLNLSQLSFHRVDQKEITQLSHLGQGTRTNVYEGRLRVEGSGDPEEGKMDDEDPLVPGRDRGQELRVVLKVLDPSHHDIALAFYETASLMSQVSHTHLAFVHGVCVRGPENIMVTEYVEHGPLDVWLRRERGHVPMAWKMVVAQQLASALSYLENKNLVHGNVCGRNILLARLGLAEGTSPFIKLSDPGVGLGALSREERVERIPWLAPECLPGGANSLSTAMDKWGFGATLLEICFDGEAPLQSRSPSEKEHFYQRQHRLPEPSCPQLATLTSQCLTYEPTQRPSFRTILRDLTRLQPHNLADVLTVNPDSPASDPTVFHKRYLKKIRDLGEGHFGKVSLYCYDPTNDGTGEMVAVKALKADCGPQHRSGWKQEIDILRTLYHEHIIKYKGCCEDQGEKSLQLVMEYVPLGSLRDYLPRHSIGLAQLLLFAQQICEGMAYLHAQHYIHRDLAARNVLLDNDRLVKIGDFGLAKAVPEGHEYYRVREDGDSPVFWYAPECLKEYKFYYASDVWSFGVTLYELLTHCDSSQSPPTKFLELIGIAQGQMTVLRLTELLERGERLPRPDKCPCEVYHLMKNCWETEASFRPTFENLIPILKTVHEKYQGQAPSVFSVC
Procedure, shortened: as §1

[1] = test system: STAT3 phosphorylation by IL-6 in TF-1 cells; assay: JAK cellular assay: STAT3 phosphorylation by IL-6 in TF-1 cells (HTRF); type: cell-based; conditions: Homo sapiens, TF-1, TF-1 cells, IL-6 30 ng/ml, pSTAT3 HTRF; read-out: Cell Based Assay (μM) TF-1/IL-6/pSTAT3
Procedure, shortened: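 Phospho-STAT3 (IL-6, 30 ng/ml) and phospho-STAT5 (GMCSF, 5 ng/ml) read by HTRF in lysates after 20 min cytokine exposure, minus unstimulated-cell background. Cells were serum-starved overnight, plated at 120,000/well, given compound 30 min at 37 °C beforehand; DMSO 0.2% final.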

[2] = test system: STAT5 phosphorylation by GMCSF in TF-1 cells; assay: JAK cellular assay: STAT5 phosphorylation by GMCSF in TF-1 cells (HTRF); type: cell-based; conditions: Homo sapiens; TF-1 cells, GMCSF 5 ng/ml, pSTAT5 HTRF; read-out: Cell Based Assay (μM) TF-1/GMCSF/pSTAT5
Description: TF-1 cells were starved overnight in OptiMEM medium with 0.5% charcoal stripped fetal bovine serum, 0.1 mM nonessential amino acids (NEAA), 1 mM sodium pyruvate and without phenol red in CO2 incubator maintained at 37° c. Next day, cells were resuspended in RPMI without phenol red and dispensed into a 96 well plate at a final cell density of 1,20,000 cells per well. Compounds were diluted in DMSO and added to cells and incubated for 30 minutes in CO2 incubator maintained at 37° c. Final DMSO concentration in cell based assay was 0.2%. Human recombinant cytokines, IL-6 (30 ng/ml) and GMCSF (5 ng/ml) were added to the plate containing cells along with compound and incubated for 20 minutes with gentle tapping at every 5 minutes once. Compound mediated effects on STAT3 and STAT5 phosphorylation was measured in the lysates prepared by using CISBIO pSTAT3 and pSTAT5 detection kits by HTRF method. Background signal obtained from cells which were not activated with cytokines, was subtracted from vehicle controls and compound treated wells.

T1 sequence (P23458 whole entry): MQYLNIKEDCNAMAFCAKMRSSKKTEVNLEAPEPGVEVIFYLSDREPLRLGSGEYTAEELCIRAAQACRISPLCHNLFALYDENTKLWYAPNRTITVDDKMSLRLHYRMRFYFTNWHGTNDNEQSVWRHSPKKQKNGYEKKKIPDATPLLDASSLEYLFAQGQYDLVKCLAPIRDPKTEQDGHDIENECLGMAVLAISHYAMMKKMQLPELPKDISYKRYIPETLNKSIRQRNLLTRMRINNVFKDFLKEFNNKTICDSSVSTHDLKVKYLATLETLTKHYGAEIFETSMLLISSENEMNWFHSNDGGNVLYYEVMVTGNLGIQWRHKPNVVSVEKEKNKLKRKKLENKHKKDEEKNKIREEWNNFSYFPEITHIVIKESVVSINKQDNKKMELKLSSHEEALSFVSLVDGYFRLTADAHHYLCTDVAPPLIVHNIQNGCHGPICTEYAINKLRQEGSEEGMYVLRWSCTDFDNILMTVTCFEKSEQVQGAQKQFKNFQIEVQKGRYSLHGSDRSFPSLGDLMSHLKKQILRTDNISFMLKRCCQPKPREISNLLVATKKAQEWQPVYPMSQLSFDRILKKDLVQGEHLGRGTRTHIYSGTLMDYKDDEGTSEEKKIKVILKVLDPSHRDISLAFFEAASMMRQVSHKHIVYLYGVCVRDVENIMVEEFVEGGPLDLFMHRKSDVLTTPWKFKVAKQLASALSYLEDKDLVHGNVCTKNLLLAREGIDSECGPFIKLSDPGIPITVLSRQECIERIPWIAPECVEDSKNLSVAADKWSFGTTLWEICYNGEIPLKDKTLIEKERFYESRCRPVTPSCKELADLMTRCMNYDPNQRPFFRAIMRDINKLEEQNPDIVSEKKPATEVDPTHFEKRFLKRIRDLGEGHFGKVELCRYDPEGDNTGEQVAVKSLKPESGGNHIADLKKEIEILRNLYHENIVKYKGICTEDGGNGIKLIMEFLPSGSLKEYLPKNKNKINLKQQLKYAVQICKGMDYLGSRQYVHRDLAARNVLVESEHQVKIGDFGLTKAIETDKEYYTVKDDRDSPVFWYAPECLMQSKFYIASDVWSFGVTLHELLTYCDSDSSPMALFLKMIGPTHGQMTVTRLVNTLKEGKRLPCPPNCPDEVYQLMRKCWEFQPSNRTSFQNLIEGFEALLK

Compound	IC50 (Recombinant JAK1)	IC50 (Recombinant JAK2)	IC50 (Recombinant JAK3)	IC50 (Recombinant TYK2)	IC50 [1]	IC50 [2]
N#CC1CCN(C(=O)n2cc(-c3ccnc4[nH]cnc34)cn2)CC1 [Example 1067, 1-(4-(3H-imidazo[4,5-b]pyridin-7-yl)-1H-pyrazole-1-carbonyl)piperidine-4-carbonitrile]	> 1 µM	> 0.5 µM	> 0.5 µM	> 10 µM	> 10 µM	> 10 µM
N#CCC(NC(=O)n1cc(-c2ccnc3[nH]c(=O)[nH]c23)cn1)C1CC1 (stereo not drawn) [Example 1051, N-(2-cyano-1-cyclopropylethyl)-4-(2,3-dihydro-2-oxo-1H-imidazo[4,5-b]pyridin-7-yl)-1H-pyrazole-1-carboxamide]	< 0.5 µM	< 0.5 µM	> 1 µM	< 0.5 µM	< 10 µM	> 10 µM
N#CCC(=O)Nc1ccc(-n2cc(-c3ccnc4[nH]cnc34)cn2)cc1 [Example 1102, N-(4-(4-(3H-imidazo[4,5-b]pyridin-7-yl)-1H-pyrazol-1-yl)phenyl)-2-cyanoacetamide]	< 0.5 µM	> 0.5 µM	> 0.5 µM	> 1 µM	> 10 µM	> 10 µM
N#CCc1ccc(-n2cc(-c3ccnc4[nH]cnc34)cn2)c(F)c1 [Example 1103, 2-(4-(4-(3H-imidazo[4,5-b]pyridin-7-yl)-1H-pyrazol-1-yl)-3-fluorophenyl)acetonitrile]	> 0.5 µM	> 0.5 µM	> 10 µM	> 10 µM	> 1 µM	> 10 µM
O=C(NCC(F)(F)F)n1cc(-c2ccnc3[nH]c(-c4ccccc4)nc23)cn1 [Example 1094, N-(2,2,2-trifluoroethyl)-4-(2-phenyl-3H-imidazo[4,5-b]pyridin-7-yl)-1H-pyrazole-1-carboxamide]	< 0.5 µM	< 0.5 µM	< 0.5 µM	< 0.5 µM	> 1 µM	> 1 µM
CC(C)[C@H](C#N)NC(=O)n1cc(-c2ccnc3[nH]c(=O)[nH]c23)cn1 [Example 1049, N-((R)-1-cyano-2-methylpropyl)-4-(2,3-dihydro-2-oxo-1H-imidazo[4,5-b]pyridin-7-yl)-1H-pyrazole-1-carboxamide]	< 0.5 µM	< 0.5 µM	< 0.5 µM	< 0.5 µM	< 10 µM	> 10 µM
N#CCc1ccnc(-n2cc(-c3ccnc4[nH]cnc34)cn2)c1 [Example 1118, 2-(2-(4-(3H-imidazo[4,5-b]pyridin-7-yl)-1H-pyrazol-1-yl)pyridin-4-yl)acetonitrile]	> 0.5 µM	> 0.5 µM	> 0.5 µM	> 1 µM	> 10 µM	> 10 µM
N#CC(c1ccc(-n2cc(-c3ccnc4[nH]cnc34)cn2)nc1)N1CC(F)(F)C1 (stereo not drawn) [Example 1111, 2-(6-(4-(3H-imidazo[4,5-b]pyridin-7-yl)-1H-pyrazol-1-yl)pyridin-3-yl)-2-(3,3-difluoroazetidin-1-yl)acetonitrile]	< 0.5 µM	> 0.5 µM	< 0.5 µM	> 10 µM	> 10 µM	> 10 µM
N#CCc1cccc(-n2cc(-c3ccnc4[nH]cnc34)cn2)c1 [Example 1106, 2-(3-(4-(3H-imidazo[4,5-b]pyridin-7-yl)-1H-pyrazol-1-yl)phenyl)acetonitrile]	< 0.5 µM	< 0.5 µM	< 0.5 µM	> 1 µM	> 1 µM	> 10 µM
N#CCc1csc(-n2cc(-c3ccnc4[nH]cnc34)cn2)n1 [Example 1076, 2-(2-(4-(3H-imidazo[4,5-b]pyridin-7-yl)-1H-pyrazol-1-yl)thiazol-4-yl)acetonitrile]	0.037 µM	0.085 µM	< 0.5 µM	> 1 µM	6 µM	> 10 µM
